The values below are quoted from earlier work in publication PMC7524040 (Biochemistry, 2020).

Ends that are not written are not given here.

Series [1] relates to cardiac heteromeric Kir3.1/3.4 channel. The conditions noted are these: heteromeric Kir3.1/Kir3.4 channels.

By IC50 is commonly meant the concentration that gives 50% inhibition. Consider “Tertiapin (ALCNCNRIIIPHMCWKKCGKK; not fully specified (C-terminus, bridges); ends and bridges not checked; UniProt P56587 1-21, looked up) [TPN]”, for which, in series [1], the “decrease in the inhibitory action after air oxidation of M13” value is 4- to 5 fold. Also, in the series on native IKACh channel, the IC50 was 30 nM.
